Measurements taken from patent US7094752B2 (Chiron Corporation, priority 1997, dated 2006).

Assays:
[1] = biological target: T1, β1/caveolin/uPAR complexes (Homo sapiens, UniProt Q03405); test: Immunoprecipitation of uPAR with β1 / caveolin; type: cell-based; details: 100 μM, co-immunoprecipitation
T1 construct: The full length cDNA for the human urokinase receptor; expressed in transfected cells; host or cells: 293 embryonic kidney cells stably expressing GPI-uPAR
Method: When triton X 100 (0.2%) insoluble fraction of GPI-uPAR 293 cells is solubilized in polar detergents, immunoprecipitation of β1 clearly co-precipitates uPAR as described in Filardo et al, J. Cell. Biol. 1995, in press: Cells (5×10^6) were cultured overnight, washed twice with microtubule stabilization buffer (0.1M PIPES, pH 6.9, 2M glycerol, 1 mM EDTA, and 1 mM magnesium acetate), and then extracted on ice for 5 minutes in buffer containing 0.2% Triton X 100 and inhibitors (1 mM sodium orthovandate, 1 mM phenylsulfonyl fluoride, […] leupeptin). The insoluble residues were solubolized at 4° C. for 20 minutes in 1× RIPA buffer (150 mM sodium chloride, 50 mM Tris-HCl, pH 7.5, 1% deoxycholate, 0.1% sodium dodecyl sulfate, 1% Triton X-100) supplemented with protease inhibitors. The triton soluble fraction was diluted 1:1 with 2× RIPA buffer. Both fractions were centrifuged for 10 minutes at 6000 rpm, and then precleared by incubation with nonimmune serum and protein A-agarose for 2 hours at 4° C.
Supernatants were transferred to fresh tubes and incubated with antibodies against β1 or caveolin for 2 hours at 4° C. Immune complexes were recovered with protein A-agarose. The washed immunoprecipitates were subjected to 8% SDS-PAGE, and transferred onto a nitrocellulose membrane. […]

nontransfected 293 cells = test: Adhesion of nontransfected 293 cells to fibronectin or collagen; type: cell-based
Excerpt: To explore whether uPAR binds to integrins, nontransfected 293 cells were allowed to adhere to fibronectin or collagen in the presence of recombinant soluble uPAR (suPAR).

suPAR = biological target: T2, suPAR (Homo sapiens, UniProt Q03405); test: SuPAR:1-anilino-8-napthalenesulfonate (ANS) fluorescence; type: binding; details: 2 μM sUPAR, 10 μM ANS, 0 to 20 μM competitor
T2 construct: sUPAR, soluble truncated form of the urokinase receptor; made in house; host or cells: baculovirus-infected Sf9 insect cells
Method: Determination of the effect of various peptide ligands on sUPAR/ANS fluorescence was performed following a procedure similar to that of Ploug et al, Biochem. 33: 8991–8997 (1994). Fluorescence emission spectra of sUPAR/ANS solutions with or without competitors were obtained using an Hitachi F-4500 fluorescence spectrophotometer with an excitation wavelength of 386 nm, 5-nm band-pass excitation and emission slits, and a 10 mm path length quartz cuvette. The emission spectra from 400 to 600 nm were recorded. For competition measurements, dilutions of a stock sUPAR/ANS solution were made to give individual 0.5 ml aliquots with a final concentration of 2 μM sUPAR, 10 μM ANS, and 0 to 20 μM competitor in PBS containing 10% DMSO. Fluorescence measurements were made after a one hour incubation at 25° C.

Mac-1 and uPAR = biological target: T3, Mac-1 and uPAR (Homo sapiens, UniProt Q03405); test: Mac-1/uPAR interaction in U937 cell line; type: cell-based; details: 100 μM
T3 construct: endogenous in cells; host or cells: U937 cell line

sUPAR domain 2–3 (D23) = biological target: T4, sUPAR domain 2–3 (D23) (Homo sapiens, UniProt Q03405); test: Bacteriophage binding to sUPAR domain 2/3; details: phage-displayed peptide
T4 construct: domains 2 and 3 (amino acids 93–313); made in house; host or cells: baculovirus infected Sf9 insect cells
Method: FIG. 5. Bacteriophage binding to sUPAR domain 2/3. Phage were added to wells containing sUPAR domain 2/3 immobilized by its epitope tag via protein G and monoclonal antibody to the epitope tag. Wells containing protein G and antibody but no domain 2/3 were included to determine nonspecific phage binding. Urea-eluted phage and the input stocks were titered by plaque formation assay. Results were single point determinations calculated as a percent of the input titer and were repeated in three separate experiments.
It was also shown by the inventors that bacteriophage bound to sUPAR domain 2–3fragment. Protein G, 100μl, 1 mg/ml in 50 mM Na2CO3, pH9.6, was added to MaxiSorp wells, incubated overnight at 4° C. and then washed with PBS/BSA. Fifty μl of monoclonal antibody to the epitope tag EYMPME (SEQ ID NO: 18) was added at 1 mg/ml in PBS/BSA and incubated for 2 hours at room temperature. The wells were washed, recombinant sUPAR domain 2–3 (1.7 μM in PBS/BSA) was added and incubated for 1.5 hours at room temperature. The wells were washed prior to the addition of bacteriophage (approximately 10^8 pfu), and then treated as described in the previous section for binding to suPAR.

T4 sequence (Q03405 115-335): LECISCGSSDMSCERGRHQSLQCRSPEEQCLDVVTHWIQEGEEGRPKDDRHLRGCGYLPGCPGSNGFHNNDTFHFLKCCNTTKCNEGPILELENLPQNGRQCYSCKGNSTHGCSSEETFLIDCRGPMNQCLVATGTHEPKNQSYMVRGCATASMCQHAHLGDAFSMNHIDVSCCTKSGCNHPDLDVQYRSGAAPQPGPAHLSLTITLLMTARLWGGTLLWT
T1 sequence (Q03405 23-305, one chain of several): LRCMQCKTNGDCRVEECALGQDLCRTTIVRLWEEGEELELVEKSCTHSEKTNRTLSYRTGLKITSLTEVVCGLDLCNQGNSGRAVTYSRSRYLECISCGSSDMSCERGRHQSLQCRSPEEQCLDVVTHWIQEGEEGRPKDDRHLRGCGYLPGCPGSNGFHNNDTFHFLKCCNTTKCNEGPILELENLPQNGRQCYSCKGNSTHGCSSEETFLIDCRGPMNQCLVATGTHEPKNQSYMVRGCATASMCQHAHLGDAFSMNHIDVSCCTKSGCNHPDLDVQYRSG
T3 sequence (Q03405 23-305 limits assumed): as the sequence (Q03405 23-305, one chain of several) above
T2 sequence (Q03405 23-305 limits assumed): as the sequence (Q03405 23-305, one chain of several) above

H-AESTYHHLSLGYMYTLN-NH2 [peptide 25] was tested, and the “disruption of β1/caveolin/uPAR complexes” value [1] was “largely disrupted”, the “reversal of suPAR inhibition of adhesion to fibronectin and collagen” value (nontransfected 293 cells; 100 μM peptide) was “reversible” and the “adhesion to fibronectin by nontransfected 293 cells” value (nontransfected 293 cells; peptide alone) was “no effect”. The “effect on ANS fluorescence enhancement in the presence of uPAR” value (suPAR) was “no effect”, the “interaction between Mac-1 and uPAR” value (Mac-1 and uPAR) was “abrogated the interaction” and the “bacteriophage binding to immobilized D23 versus sUPAR” value (sUPAR domain 2–3 (D23); listed as bacteriophage 25) was “equivalent binding to D23 and suPAR”. For the same substance, the “bacteriophage binding to immobilized D23 versus sUPAR” value (sUPAR domain 2–3 (D23); listed as clone 25) was “bind equivalently to the D23 fragment and full-length receptor”.
